# Patent publication US12661335B2, “Halogenated xanthene-containing topical anti-gram-positive bacterial ophthalmic composition and method” (Provectus Pharmatech, Inc., priority 2021, dated 2026)
# Columns and labels:
# F. solani = conditions: three days of incubation, cited from earlier work
# [1] = system: Staphylococcus aureus subsp. Aureus BAA-2094 ™ (a MRSA strain); assay: MIC, broth dilution method, dark condition; format: cell-based; conditions: Table 1 entry 9, 24 h
# [2] = system: Staphylococcus epidermidis 35984 ™; assay: MIC, broth dilution method, dark condition; format: cell-based
# [3] = system: Mycobacteroides abscessus 19977 ™; assay: MIC, broth dilution method, dark condition; format: cell-based; conditions: Table 1 entry 29, 24 h
# [4] = system: Mycobacterium avium subsp. Avium 2285; assay: MIC, broth dilution method, dark condition; format: cell-based; conditions: Table 1 entry 26, 24 h
# [5] = system: Staphylococcus aureus 6538 ™; assay: MIC, agar dilution method; format: cell-based; conditions: Table 2 entry 3, dark
# Excerpt: (§1) The MIC values of RB determined by the agar dilution method differed from those determined by the broth dilution method (Table 1). Selected examples of the MIC values determined by the agar dilution method are summarized in Table 2 shown by renumbering the assayed microbes.
# [6] = system: Bacillus subtilis ATCC6051; assay: MIC, agar dilution method; format: cell-based; conditions: Table 2 entry 1, dark
# Excerpt: as §1
# [7] = system: Staphylococcus aureus subsp. Aureus BAA-44 ™ (a MRSA strain); assay: MIC, agar dilution method; format: cell-based; conditions: Table 2 fourth entry (printed 1), dark
# Excerpt: as §1
# [8] = system: Mycobacterium smegmatis 607 ™; assay: MIC, agar dilution method; format: cell-based; conditions: Mycolicibacterium smegmatis, Table 2 entry 5, dark
# Excerpt: as §1
# Bacillus cereus 13061 ™ = assay: MIC, agar dilution method; format: cell-based; conditions: Table 2 entry 2, dark
# Excerpt: as §1
# [9] = system: Staphylococcus aureus strain AIS 1000505 (VRS10, a vancomycin-resistant strain); assay: MIC, broth dilution method, dark condition; format: cell-based; conditions: Table 1 entry 14, 24 h
# [10] = system: Staphylococcus aureus BR 5 (A methicillin and vancomycin resistant strain); assay: MIC, broth dilution method, dark condition; format: cell-based; conditions: Table 1 entry 13, 24 h
# [11] = system: vancomycin-resistant S. aureus strains; conditions: under either lighting condition (fluorescent or LED); entries 12-16
# Procedure: (§2) Minimum inhibitory concentrations (MICs) were determined by broth dilution microplate alamar blue assay or by OD measurement. All compounds were stored in DMSO or saline (1 mg/100 μL concentration). This concentration was used as the stock solution for all MIC studies. Each compound from stock solution was placed in the first well of a sterile 96 well plate and a serial dilution was conducted with the culturing broth (total volume of 10 μL). The bacterial suspension at log phase (190 μL) was added to each well (total volume of 200 μL), and was incubated for 24 h at 37° C. 20 μL of resazurin (0.02%) was added to each well and incubated for 4 h, (National Committee for Clinical Laboratory Standards (NCCLS) method (pink=growth, blue=no visible growth)). The OD measurements were performed for all experiments prior to performing colorimetric assays. The absorbance of each well was also measured at 570 and 600 nm via UV-Vis.
# [12] = system: Mycobacterium kansasii 824 ™; assay: MIC, broth dilution method, dark condition; format: cell-based; conditions: Table 1 entry 27, 24 h
# [13] = system: Staphylococcus aureus subsp. Aureus BAA-42 ™ (a MRSA strain); assay: MIC, broth dilution method, dark condition; format: cell-based; conditions: Table 1 entry 7, 24 h
# [14] = system: biofilms of drug-resistant S. aureus 71080 (VRS8); assay: Biofilm eradication assay; format: cell-based, Staphylococcus aureus; conditions: fluorescent and dark conditions; concentration-dependent
# Excerpt: Linezolid is not an effective drug in eradicating biofilms of Gram-positive bacteria, but has a beneficial effect in prevention of biofilm formations [Reiter et al., J. Med. Microbiol. 62:394-399 (2013)], and was used as a control.
# We confirm that RB is an excellent agent to eradicate biofilms of Gram-positive bacteria, including drug-resistant strains. […] These studies indicate that RB has the potential antibacterial agent to kill drug-resistant bacteria in any growth phases.
# Gram-positive bacteria = assay: MIC summary for Gram-positive bacteria, broth dilution; format: cell-based
# Excerpt: Under the dark condition RB is known to display antibacterial activity at high concentrations.
# Provectus has established a manufacturing and purification process for pharmaceutical-grade RB that fulfills both cGMP and ICH requirements. We have evaluated the antibacterial activity and cytotoxicity of a pharmaceutical-grade RB formulated product (PV-10®) as an exemplary RB compound in illuminating and dark conditions.
# [15] = system: Enterococcus faecium 349 ™; assay: MIC, broth dilution method, dark condition; format: cell-based; conditions: Table 1 entry 18, 24 h
# [16] = system: Enterococcus faecium UAA714 (a vancomycin-resistant strain); assay: MIC, broth dilution method, dark condition; format: cell-based; conditions: Table 1 entry 22, 24 h
# [17] = system: Enterococcus faecium patient #3-1, NR-31912 (a vancomycin-resistant strain); assay: MIC, broth dilution method, dark condition; format: cell-based; conditions: Table 1 entry 21, 24 h
# [18] = system: Streptococcus salivarius subsp. Salivarius 7073 ™; assay: MIC, broth dilution method, dark condition; format: cell-based
# [19] = system: 7 methicillin-resistant S. aureus (MRSA) with different SCCmec types; assay: Bactericidal activity under fluorescent or LED light, MRSA panel; format: cell-based, Staphylococcus aureus; conditions: under the fluorescent or LED light; Table 1 entries 5-11
# Procedure: as §2
# [20] = system: Staphylococcus aureus 6538 ™; assay: MIC, broth dilution method, dark condition; format: cell-based; conditions: Table 1 entry 4, 24 h
# [21] = system: Bacillus subtilis ATCC6051; assay: MIC, broth dilution method, dark condition; format: cell-based; conditions: Table 1 entry 1, 24 h
smiles,measurement,setting,value
"O=C(O)c1c(Cl)c(Cl)c(Cl)c(Cl)c1-c1c2cc(I)c(=O)c(I)c-2oc2c(I)c(O)c(I)cc12 [RB, 4,5,6,7-tetrachloro-2′,4′,5′,7′-tetraiodofluorescein]","Day 3 Growth Inhibition Percentage, RB + 518 nm Irradiation","F. solani; 518 nm, 5.4 J/cm^2",78.2 ± 2.1 Percentage
same,"Day 3 Growth Inhibition Percentage, RB Only","F. solani; dark, no irradiation",7.3 ± 1.1 Percentage
same,MIC,[1],25 µg/mL
same,MIC,"[2]; Staphylococcus epidermidis, Table 1 entry 16, broth dilution, dark, 24 h",25 µg/mL
same,killing by RB,"[2]; aerobic condition, entry 16",effectively killed
same,MIC,[3],50 µg/mL
same,MIC,[4],50 µg/mL
same,MIC,[5],25 µg/mL
same,MIC,[6],125 µg/mL
same,MIC,[7],50 µg/mL
same,MIC,[8],50 µg/mL
same,MIC,Bacillus cereus 13061 ™,125 µg/mL
same,MIC,[9],25 µg/mL
same,MIC,[10],25 µg/mL
same,concentration at which all vancomycin-resistant strains were killed,[11],below 1.0 μg/mL
same,MIC,[12],50 µg/mL
same,MIC,[13],50 µg/mL
same,viable cells in biofilm,[14],significantly reduced
same,concentration showing antibacterial activity against all Gram-positive bacteria of entries 1-23,"Gram-positive bacteria; dark condition, Table 1",25.0 to 100 µg/mL
same,MIC,"Gram-positive bacteria; saline-diluted PV-10, except Streptococcus pneumoniae sp., lighting not given, read-out: MIC against most Gram-positive bacteria",0.39 to 3.1 µg/mL
same,MIC,[15],50 µg/mL
same,MIC,[16],50 µg/mL
same,MIC,[17],50 µg/mL
same,MIC,"[18]; Streptococcus salivarius, Table 1 entry 23, broth dilution, dark, 24 h",25 µg/mL
same,susceptibility to RB,[18]; entry 23,susceptible
same,concentration at which all MRSA strains were killed,[19],0.78 to 3.1 µg/mL
same,MIC,[20],50 µg/mL
same,MIC,[21],50 µg/mL
